Like-named read-outs stand apart in the source and are kept apart here.
Key:
[1] = system: DENV2 (New Guinea C strain); format: cell-based, Dengue virus; settings: 100 μM IU1; preincubated cells
[2] = system: DENV2; format: cell-based, Dengue virus
[3] = system: WNV (WNO2-1956); format: cell-based, West Nile virus
[4] = system: yellow fever virus (YFV, 17D vaccine strain); format: cell-based
[5] = system: LACV (LAC74-32813); format: cell-based, La Crosse virus
[6] = system: CHIKV (LR2006-OPY1); format: cell-based, Chikungunya virus

## Cc1cc(C(=O)CN2CCCC2)c(C)n1-c1ccc(F)cc1 [IU1, 1-(1-(4-fluorophenyl)-2,5-dimethyl-1H-pyrrol-3-yl)-2-(pyrrolidin-1-yl)ethanone]
[1]
  plaques in plaque assay: No plaques were observed
[2]; 75 μM IU1, post-infection addition
  titer, % of maximum: 37%
[2]; 100 μM IU1, post-infection addition
  titer, % of maximum: 0.5%
[3]
  WNV titer reduction: 3-5 fold
  WNV titer versus without the drug: significantly higher
  plaques in plaque assay (WNV): no plaques were observed
[4]
  YFV titer reduction: 3-5 fold
[5]
  LACV replication reduction: 3 fold
[6]
  effect on CHIKV replication: negligible or non-existent
